“Also recorded” adds a separate entry of the source.
Key:
survivin protein = test: Western blot analysis of survivin; format: cell-based
[1] = system: TCF/β-catenin reporter gene transcription in PC-12 PS-1/L286V cells; test: TOPFLASH luciferase assay in differentiated PC-12 cells; format: cell-based, Rat; details: PS-1/L286V mutant PC-12 cells; 10 μM plus NGF
Experimental: Differentiated PC-12/L286V cells were treated with increasing concentrations of this compound for 4 hours. Transfection was then initiated after this treatment period.
Transfection. PC-12 cells were cultured and differentiated on 60-mm dishes. At the end of the 10-day differentiation period, cells were transfected with 2 μg reporter constructs, TOPFLASH and FOPFLASH, per 60-mm dish. Transfections were performed using Superfect (Qiagen) according to manufacturer's instructions.
Luciferase Assays. Cells were lysed, 6 hours after transfections, in 100 μl of Cell Culture Lysis Reagent (Promega, Madison, Wis.), and scraped into microcentrifuge tubes. Tubes were then centrifuged briefly (about 10 seconds) at 12000 rpm to pellet cell debris. Luciferase activity was measured on 20 μl of cell lysate and 100 μl substrate from the Luciferase Assay System (Promega). Luciferase activity was measure using Packard LumiCount. (Hewlett Packard). Quantitation of luciferase was performed in triplicates, and repeated in at least three independent experiments.

[2] = system: GAP-43 in PC-12 PS-1/L286V cells; test: GAP-43 immunofluorescence; format: cell-based, Rat; details: PS-1/L286V mutant PC-12 cells; 10 μM
Experimental: Immunofluorescence. Cells were plated at a density of 10,000 cells/cm^2 on sterile coated 22×22 mm coverslips in a 6-well culture plate. Differentiation was initiated, as previously described, for 10 days. The differentiated cells were then fixed in methanol for 15 minutes at −20° C. This is followed by a 15 minutes incubation with PBS+0.1% Triton X-100. The coverslips were incubated with antibodies raised against Ephrin B2 Receptor (Santa Cruz Biotechnology) and Gap-43 (Novus Biologicals) for 40 minutes at 37° C. After a series of washes with PBS-Triton X-100, secondary antibody conjugated to FITC (Jackson ImmunoResearch, Westgrove, Pa.) was applied. All slides images were acquired using a Nikon PCM2000 Laser Scanning Confocal Microscope mounted on a Nikon Eclipse E600 upright microscope (Nikon, Melville, N.Y.).

HCT116 cells = test: Flow cytometric analysis (FACS) of cell cycle; format: cell-based; details: 25 μM, 24 hours
Experimental: (§1) For FACS analysis, approx. 5×10^6 cells from Compound D-treated or vehicle-treated were fixed with 70% chilled ethanol and stored at −20° C. for at least 30 minutes. The cells were washed once with 1×PBS and incubated with propidium iodine (PI) solution (85 μg/ml propidium iodine, 0.1% Nonidet P-40, 10 mg/ml RNAse) for 30 minutes at room temperature. 10,000 stained cells for each sample were acquired using Beckman Coulter EPICS XL-MCL Flow Cytometry and the percentage of cells in different phase of the cell cycle was determined by Expo32 ADC software (Coulter Corporation, Miami, Fla., 33196).
(§2) It has been shown that inhibition of the expression of the cyclin D1 gene causes arrest at the G1/S-phase of the cell cycle (Shintani et al., “Infrequent alternations of RB pathway (Rb-p16INK4A-cyclin D1) in adenoid cystic carcinoma of salivary glands,” Anticancer Res. 20:2169-75 (2000)). […] The cells were subsequently stained with propidium iodide (PI) and analyzed for DNA content by FACS cytofluorometry.

SW480 cells [3] = test: Flow cytometric analysis (FACS) of cell cycle; format: cell-based; details: 25 μM, 24 hours
Experimental: as §1, §2

[4] = system: caspase-3/7 in HCT116 cells; test: Caspase-3/7 activity assay; format: cell-based; details: 25 μM, 24 hours, compared to CCD18Co cells
Experimental: (§3) SW480, HCT116, and CCD18Co cells were plated at 10^5 cells per well (96-well plates) for 24 hours prior to treatment. […] 24 hours post treatment, cells were lysed and caspase activity was measured using a caspase-3/7 activity kit (Apo-One Homogeneous caspase-3/7 assay, #G77905, Promega). Relative fluorescence units (RFU) were obtained by subtracting the unit values of the blank (control, without cells) from the experimental measured values.

[5] = system: caspase-3/7 in SW480 cells; test: Caspase-3/7 activity assay; format: cell-based; details: 25 μM, 24 hours, compared to CCD18Co cells
Experimental: as §3

SW480 cells [6] = test: Soft agar colony formation assay; format: cell-based
Experimental: The soft agar colony formation assay was conducted with SW480 cells by some modification of the procedure previously described (Moody et al., “A vasoactive intestinal peptide antagonist inhibits non-small cell lung cancer growth,” Proc. Natl. Acad. Sci. USA. 90:4345-49 (1993)).
Each well (35 mm) of a 6-well plate (Nalge Nunc International, Roskide, Denmark) was coated with 1 ml of 0.8% bottom agar in DMEM medium containing 10% fetal bovine serum. After it was solidified, 1 ml of DMEM medium containing 0.4% top agar, 10% fetal bovine serum, compound doubly concentrated, and 5,000 single viable cells was added to each well. The cultures were incubated at 37° C. in humidified 5% CO2 incubator. Colonies in soft agar were monitored daily and photographed after incubation for 8 days. Colonies>60 μm in diameter were counted.

[7] = system: survivin promoter in wild type, CBP+/−, p300+/− 3T3 cells; test: Survivin promoter luciferase reporter in 3T3 cells; format: cell-based
From the text: A plasmid containing luciferase under the control of survivin promoter was constructed and transfected into wild type, CBP+/−, or p300+/−3T3 cells.

[8] = system: survivin promoter in SW480 cells; test: Survivin luciferase reporter in SW480 cells; format: cell-based; details: SW480 cells; various concentrations
[9] = system: survivin promoter occupancy by CBP, β-catenin, Tcf4 and acetylated histone; test: ChIP assay on SW480 cells; format: cell-based; details: 25 μM, 18 hours
survivin in SW480 cells = test: Survivin immunofluorescence microscopy; format: cell-based
caspase 3 = test: Caspase 3 activity in cultured tumor cells; format: cell-based
caspase 2 = test: Caspase 2 activity in cultured tumor cells; format: cell-based; details: co-treatment of stausporine (0.5 μM) and Compound D
cultured tumor cells [10] = test: Cell death of cultured tumor cells; format: cell-based; details: 5.0 μM
cultured tumor cells [11] = test: FACS analysis, cells in G0; format: cell-based; details: 5 μM
[12] = target: β-catenin/CBP interaction (Homo sapiens, UniProt Q92793); details: Emami et al., Cancer Cell, in press; cited from earlier work
[13] = target: β-catenin/p300 interaction (Homo sapiens, UniProt Q09472); details: Emami et al., Cancer Cell, in press; cited from earlier work
Chain of β-catenin/p300 interaction (Q09472 whole entry): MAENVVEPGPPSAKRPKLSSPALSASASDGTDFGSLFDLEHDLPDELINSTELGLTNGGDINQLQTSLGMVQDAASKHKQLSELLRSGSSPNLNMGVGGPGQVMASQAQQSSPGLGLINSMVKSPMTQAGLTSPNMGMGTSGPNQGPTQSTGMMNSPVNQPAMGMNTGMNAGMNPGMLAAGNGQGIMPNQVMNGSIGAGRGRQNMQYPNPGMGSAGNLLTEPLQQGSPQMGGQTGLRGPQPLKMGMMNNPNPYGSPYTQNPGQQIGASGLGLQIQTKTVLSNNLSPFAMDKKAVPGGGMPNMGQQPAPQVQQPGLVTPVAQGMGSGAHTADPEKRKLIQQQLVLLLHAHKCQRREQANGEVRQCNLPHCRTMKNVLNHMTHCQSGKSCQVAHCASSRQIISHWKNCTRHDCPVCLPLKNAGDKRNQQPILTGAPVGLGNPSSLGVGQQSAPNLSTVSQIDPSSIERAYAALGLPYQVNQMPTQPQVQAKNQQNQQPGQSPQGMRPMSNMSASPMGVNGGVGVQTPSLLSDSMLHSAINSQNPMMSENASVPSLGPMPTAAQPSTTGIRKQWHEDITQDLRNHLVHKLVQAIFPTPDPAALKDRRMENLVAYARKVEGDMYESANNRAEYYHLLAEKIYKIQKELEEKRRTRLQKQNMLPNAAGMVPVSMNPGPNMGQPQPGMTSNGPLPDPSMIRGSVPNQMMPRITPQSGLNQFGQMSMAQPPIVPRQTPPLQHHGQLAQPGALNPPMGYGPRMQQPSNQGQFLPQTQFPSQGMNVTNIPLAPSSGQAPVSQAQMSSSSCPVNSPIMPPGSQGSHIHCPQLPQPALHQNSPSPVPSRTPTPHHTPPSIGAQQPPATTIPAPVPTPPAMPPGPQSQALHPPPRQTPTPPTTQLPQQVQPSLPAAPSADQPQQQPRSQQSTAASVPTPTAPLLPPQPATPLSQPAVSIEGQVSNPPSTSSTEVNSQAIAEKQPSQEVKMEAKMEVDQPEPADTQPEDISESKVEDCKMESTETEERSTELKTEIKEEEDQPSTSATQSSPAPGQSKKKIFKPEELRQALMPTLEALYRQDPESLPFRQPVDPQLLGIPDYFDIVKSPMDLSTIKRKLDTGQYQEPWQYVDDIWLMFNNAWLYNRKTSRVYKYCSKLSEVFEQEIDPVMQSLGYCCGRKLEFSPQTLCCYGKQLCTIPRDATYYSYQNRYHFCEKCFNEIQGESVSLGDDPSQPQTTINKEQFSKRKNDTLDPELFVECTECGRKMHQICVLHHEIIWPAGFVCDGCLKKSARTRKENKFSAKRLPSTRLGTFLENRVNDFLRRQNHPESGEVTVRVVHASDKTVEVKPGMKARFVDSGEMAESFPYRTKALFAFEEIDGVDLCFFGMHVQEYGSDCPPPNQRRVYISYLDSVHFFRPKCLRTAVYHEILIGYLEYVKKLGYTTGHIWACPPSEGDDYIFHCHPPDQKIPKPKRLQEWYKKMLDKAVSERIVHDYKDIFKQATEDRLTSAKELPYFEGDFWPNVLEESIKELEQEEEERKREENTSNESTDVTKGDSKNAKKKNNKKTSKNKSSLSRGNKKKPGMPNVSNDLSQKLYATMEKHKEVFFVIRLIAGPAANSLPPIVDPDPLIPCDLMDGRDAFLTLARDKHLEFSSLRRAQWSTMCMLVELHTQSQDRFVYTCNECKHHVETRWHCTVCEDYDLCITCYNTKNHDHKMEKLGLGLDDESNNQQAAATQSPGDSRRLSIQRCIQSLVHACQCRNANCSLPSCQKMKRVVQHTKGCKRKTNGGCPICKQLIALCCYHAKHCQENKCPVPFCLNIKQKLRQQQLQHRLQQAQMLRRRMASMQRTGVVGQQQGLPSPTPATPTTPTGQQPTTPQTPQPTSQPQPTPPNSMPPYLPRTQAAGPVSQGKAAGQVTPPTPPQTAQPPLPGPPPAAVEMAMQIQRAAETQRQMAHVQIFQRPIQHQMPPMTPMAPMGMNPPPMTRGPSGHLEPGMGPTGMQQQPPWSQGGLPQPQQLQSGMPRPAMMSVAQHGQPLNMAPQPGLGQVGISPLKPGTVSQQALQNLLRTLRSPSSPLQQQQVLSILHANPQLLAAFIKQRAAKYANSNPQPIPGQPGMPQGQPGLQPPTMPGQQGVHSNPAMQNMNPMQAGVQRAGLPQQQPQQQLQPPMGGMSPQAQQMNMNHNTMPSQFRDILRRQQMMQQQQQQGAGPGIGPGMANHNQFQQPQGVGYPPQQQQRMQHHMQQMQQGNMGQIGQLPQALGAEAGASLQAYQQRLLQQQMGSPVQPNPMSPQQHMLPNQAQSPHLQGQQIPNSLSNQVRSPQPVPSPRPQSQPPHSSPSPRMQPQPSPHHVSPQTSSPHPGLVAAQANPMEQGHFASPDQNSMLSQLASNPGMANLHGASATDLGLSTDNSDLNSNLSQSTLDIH

Chain of β-catenin/CBP interaction (Q92793 whole entry): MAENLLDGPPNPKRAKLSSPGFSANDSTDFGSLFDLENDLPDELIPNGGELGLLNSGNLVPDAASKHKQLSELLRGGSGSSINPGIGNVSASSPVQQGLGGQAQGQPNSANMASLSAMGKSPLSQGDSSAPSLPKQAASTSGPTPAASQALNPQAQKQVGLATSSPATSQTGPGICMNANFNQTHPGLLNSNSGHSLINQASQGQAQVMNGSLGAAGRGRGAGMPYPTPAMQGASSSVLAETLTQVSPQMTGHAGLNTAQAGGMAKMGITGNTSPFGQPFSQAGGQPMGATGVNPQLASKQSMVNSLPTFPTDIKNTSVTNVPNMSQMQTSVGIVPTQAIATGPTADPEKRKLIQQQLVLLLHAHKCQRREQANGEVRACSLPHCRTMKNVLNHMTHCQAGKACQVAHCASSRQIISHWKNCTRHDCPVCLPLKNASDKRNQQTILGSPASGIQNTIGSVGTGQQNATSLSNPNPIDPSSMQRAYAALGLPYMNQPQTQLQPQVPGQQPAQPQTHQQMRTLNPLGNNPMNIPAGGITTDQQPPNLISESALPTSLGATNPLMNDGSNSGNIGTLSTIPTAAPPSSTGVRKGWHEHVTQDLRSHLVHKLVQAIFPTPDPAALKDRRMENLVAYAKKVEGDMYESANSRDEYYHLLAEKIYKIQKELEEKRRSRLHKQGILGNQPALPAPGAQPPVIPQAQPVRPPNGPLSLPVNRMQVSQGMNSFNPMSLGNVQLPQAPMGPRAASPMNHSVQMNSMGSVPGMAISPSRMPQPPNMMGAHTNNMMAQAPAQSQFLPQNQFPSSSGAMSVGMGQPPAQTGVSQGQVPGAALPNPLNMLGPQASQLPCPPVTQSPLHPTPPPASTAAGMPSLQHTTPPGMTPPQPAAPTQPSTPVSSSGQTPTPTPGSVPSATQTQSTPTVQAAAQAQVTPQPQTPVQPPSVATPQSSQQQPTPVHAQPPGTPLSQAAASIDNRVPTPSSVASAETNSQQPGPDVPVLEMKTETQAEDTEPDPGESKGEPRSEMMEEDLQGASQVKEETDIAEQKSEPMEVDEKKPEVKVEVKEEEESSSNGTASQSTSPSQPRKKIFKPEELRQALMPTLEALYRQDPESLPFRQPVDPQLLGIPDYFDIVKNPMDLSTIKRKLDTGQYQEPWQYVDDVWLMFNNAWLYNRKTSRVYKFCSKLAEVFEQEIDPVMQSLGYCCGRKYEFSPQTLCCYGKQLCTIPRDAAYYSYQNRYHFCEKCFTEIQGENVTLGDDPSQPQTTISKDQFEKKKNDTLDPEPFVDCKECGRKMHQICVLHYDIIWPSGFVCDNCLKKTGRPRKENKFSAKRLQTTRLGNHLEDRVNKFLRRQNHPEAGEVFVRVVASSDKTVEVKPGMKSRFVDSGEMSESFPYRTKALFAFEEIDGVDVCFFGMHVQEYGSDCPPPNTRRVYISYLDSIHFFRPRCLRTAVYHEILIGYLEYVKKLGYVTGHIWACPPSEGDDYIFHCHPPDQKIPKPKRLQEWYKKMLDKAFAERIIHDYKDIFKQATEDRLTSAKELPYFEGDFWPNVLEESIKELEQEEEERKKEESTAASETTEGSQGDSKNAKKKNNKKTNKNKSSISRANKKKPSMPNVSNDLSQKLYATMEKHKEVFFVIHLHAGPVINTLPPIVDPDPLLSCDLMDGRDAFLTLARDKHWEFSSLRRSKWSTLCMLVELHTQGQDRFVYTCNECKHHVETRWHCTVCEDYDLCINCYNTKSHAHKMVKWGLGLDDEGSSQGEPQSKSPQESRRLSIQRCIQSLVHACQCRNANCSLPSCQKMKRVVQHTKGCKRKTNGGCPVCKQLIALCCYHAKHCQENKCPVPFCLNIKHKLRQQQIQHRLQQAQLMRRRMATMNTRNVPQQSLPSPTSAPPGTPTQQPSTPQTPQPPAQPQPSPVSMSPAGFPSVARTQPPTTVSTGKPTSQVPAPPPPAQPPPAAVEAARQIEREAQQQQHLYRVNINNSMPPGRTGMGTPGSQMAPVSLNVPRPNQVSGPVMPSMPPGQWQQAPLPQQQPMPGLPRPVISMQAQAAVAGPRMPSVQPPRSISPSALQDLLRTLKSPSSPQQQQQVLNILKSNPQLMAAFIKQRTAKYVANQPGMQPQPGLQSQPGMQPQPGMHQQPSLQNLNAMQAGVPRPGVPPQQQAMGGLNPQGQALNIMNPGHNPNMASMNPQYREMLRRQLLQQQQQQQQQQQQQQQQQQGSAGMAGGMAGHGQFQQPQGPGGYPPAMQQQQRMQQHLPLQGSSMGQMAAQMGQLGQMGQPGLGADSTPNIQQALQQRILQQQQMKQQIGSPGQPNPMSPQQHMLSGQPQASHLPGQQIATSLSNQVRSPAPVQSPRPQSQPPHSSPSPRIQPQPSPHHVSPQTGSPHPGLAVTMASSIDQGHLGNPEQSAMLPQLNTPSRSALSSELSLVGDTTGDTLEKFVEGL

With `O=c1[nH]cc(F)c(=O)[nH]1` [Compound 5-FU, 5-fluorouracil] the “amount of survivin protein (Western blot)” value (shortened to “amount of survivin protein”) (survivin protein; 5 μM) was “reduced the amount of the survivin protein”.
With `O=C1[C@H](Cc2ccc(O)cc2)N2C(=O)CCN(C(=O)NCc3ccccc3)[C@H]2CN1Cc1cccc2ccccc12` [Compound D] the “TCF/β-catenin reporter gene transcription” value [1] was “decreased TCF/β-catenin reporter gene transcription”, the GAP-43 staining [2] was “significantly elevated” and the “cell cycle distribution (PI, FACS)” value (HCT116 cells) was “increased accumulation at G1/S-phase of the cell cycle; also recorded: arrests cells in G1”. The “cell cycle distribution (PI, FACS)” value (SW480 cells [3]) was “increased accumulation at G1/S-phase of the cell cycle; also recorded: arrests cells in G1”, the caspase-3/7 activity [4] was “selectively activates caspases in colon carcinoma cell lines” and the caspase-3/7 activity [5] was “selectively activates caspases in colon carcinoma cell lines”. The “number of colonies formed in soft agar” value (SW480 cells [6]; 0.25-5 μM) was “reduces colony growth in soft agar in a dose dependent manner”, the IC50 (SW480 cells [6]; Homo sapiens, 192 h, 8 days, colonies >60 μm) was 870 ± 110 nM and the “survivin gene expression (luciferase under survivin promoter)” value [7] was “reduces expression of the survivin gene; also recorded: knout-down”. For the same molecule, the “Wnt1 stimulation of survivin gene expression” value ([7]; with Wnt1) was “decreases the stimulation of the survivin gene expression by Wnt1”, the “survivin luciferase reporter activity” value [8] was “inhibit expression of survivin; also recorded: inhibit the activity of a survivin luciferase reporter” and the “association of CBP, β-catenin, Tcf4 and acetylated histone with the survivin promoter (ChIP)” value [9] was “decreases the association of all these proteins with the survivin promoter; also recorded: decreases the association of various proteins with the survivin promoter”. For the same molecule, the “amount of survivin protein” value (survivin protein; 10 μM) was “reduced the amount of the survivin protein”, the “amount of survivin protein” value (survivin protein; 25 μM) was “reduced the amount of the survivin protein” and the “survivin protein (immunofluorescence microscopy)” value (survivin in SW480 cells) was “little or no survivin protein was detected”. The “caspase 3 activity, co-treatment” value (caspase 3; co-treatment of stausporine (0.5 μM) and Compound D) was “synergic stimuation of the caspase 3 activity”, the “caspase 3 activity” value (caspase 3; cultured tumor cells, 2.5 μM or 5.0 μM) was “activates the caspase 3 activity” and the “caspase 2 activity, co-treatment” value (caspase 2) was “not a synergic stimuation of the caspase 2 activity”. The cell death (cultured tumor cells [10]) was “promotes cell death”, the “number of cells in G0 (FACS)” value (cultured tumor cells [11]) was “increases the number of cells in G0” and the β-catenin/CBP interaction [12] was “selectively blocks the β-catenin/CBP interaction”. The β-catenin/p300 interaction [13] was “not the β-catenin/p300 interaction”.
